From patent publication US10456553B2, “Device and methods for targeted tissue drug delivery” (NATIVE CARDIO, INC., priority 2012, dated 2019)

How the values were obtained:
[1] = parameters: species or system swine; settings: in vivo
Protocol: Studies were conducted to determine the differences between intrapericardial (IPC) drug delivery versus intravenous (IV) drug delivery of the antiarrhythmic drug procainamide. In one study, using two groups of swine, investigators administered procainamide intravenously (n=6) or […] (n=7) using sequential intravenous doses of 2, 8, 16 mg/kg (cumulative was 2, 10, 26 mg/kg) or sequential pericardial doses of 0.5, 1, and 2 mg/kg (cumulative was 0.5, 1.5, 3.5 mg/kg). Each dose was re-suspended in 10 ml and administered at a rate of 1 mL/min. The pharmacokinetics of the two drug delivery methods was statistically significant. Pericardial delivery produced peak drug concentrations within the range of 250 to 900 ug/ml while the measurable level for plasma concentration was low (<1 ug/mL). […] It should be noted that the pericardial fluid concentration during intravenous delivery was 100 times less than that of intrapericardial delivery. The atrial electrophysiologic values were similar between both sets of delivery methods, indicating a lower direct dose can achieve similar therapeutic responses. The 3.5 mg/kg cumulative pericardial dose increased right atrial ERP by 22% from the baseline, while the 10 and 26 mg/kg cumulative intravenous doses prolonged atrial ERP by 24% and 18%, respectively. […]

[2] = system: ventricular electrophysiology; experiment: Ventricular electrophysiology, heart rate and systemic blood pressure after pericardial or intravenous procainamide; assay type: in vivo; settings: swine
Protocol: (§1) Studies were conducted to determine the differences between intrapericardial (IPC) drug delivery versus intravenous (IV) drug delivery of the antiarrhythmic drug procainamide. In one study, using two groups of swine, investigators administered procainamide intravenously (n=6) or […] (n=7) using sequential intravenous doses of 2, 8, 16 mg/kg (cumulative was 2, 10, 26 mg/kg) or sequential pericardial doses of 0.5, 1, and 2 mg/kg (cumulative was 0.5, 1.5, 3.5 mg/kg). Each dose was re-suspended in 10 ml and administered at a rate of 1 mL/min. The pharmacokinetics of the two drug delivery methods was statistically significant. Pericardial delivery produced peak drug concentrations within the range of 250 to 900 ug/ml while the measurable level for plasma concentration was low (<1 ug/mL). […] It should be noted that the pericardial fluid concentration during intravenous delivery was 100 times less than that of intrapericardial delivery. The atrial electrophysiologic values were similar between both sets of delivery methods, indicating a lower direct dose can achieve similar therapeutic responses. The 3.5 mg/kg cumulative pericardial dose increased right atrial ERP by 22% from the baseline, while the 10 and 26 mg/kg cumulative intravenous doses prolonged atrial ERP by 24% and 18%, respectively. In addition, the cumulative doses of 3.5 mg/kg (pericardial) and 26 mg/kg (intravenous) prevented atrial fibrillation induction in 71% and 83% of the animals, respectively.

[3] = system: atria; experiment: Atrial electrophysiology (right atrial ERP) and atrial fibrillation induction after pericardial or intravenous procainamide; assay type: in vivo; settings: swine
Protocol: as §1

CCN(CC)CCNC(=O)c1ccc(N)cc1 [procainamide]
concentrations within the pericardial fluid ([1]; iv): equal to that of the plasma concentration
pericardial fluid concentration during intravenous delivery relative to intrapericardial delivery ([1]; swine): 100 times less
atrial ventricular conduction times ([2]; 26 mg/kg intravenous dose): prolonged
interventricular conduction (RV and LV activation) ([2]; 26 mg/kg intravenous dose): reduced
effects on ventricular electrophysiology, heart rate, or systemic blood pressure ([2]; pericardial delivery): no significant effects
animals in which atrial fibrillation induction was prevented ([3]; 3.5 mg/kg cumulative dose, pericardial): 71%
increase of right atrial ERP from the baseline ([3]; 3.5 mg/kg cumulative pericardial dose): 22%
prolongation of atrial ERP ([3]; 10 mg/kg cumulative intravenous dose): 24%
animals in which atrial fibrillation induction was prevented ([3]; 26 mg/kg cumulative dose, intravenous): 83%
prolongation of atrial ERP ([3]; 26 mg/kg cumulative intravenous dose): 18%
